{"source": "paper PMC10272112", "about": "(Nature Communications, 2023)", "key": {"HDAC8": {"target": "T1, HDAC8 (Homo sapiens, UniProt Q9BY41)", "T1 sequence (Q9BY41 1-377)": "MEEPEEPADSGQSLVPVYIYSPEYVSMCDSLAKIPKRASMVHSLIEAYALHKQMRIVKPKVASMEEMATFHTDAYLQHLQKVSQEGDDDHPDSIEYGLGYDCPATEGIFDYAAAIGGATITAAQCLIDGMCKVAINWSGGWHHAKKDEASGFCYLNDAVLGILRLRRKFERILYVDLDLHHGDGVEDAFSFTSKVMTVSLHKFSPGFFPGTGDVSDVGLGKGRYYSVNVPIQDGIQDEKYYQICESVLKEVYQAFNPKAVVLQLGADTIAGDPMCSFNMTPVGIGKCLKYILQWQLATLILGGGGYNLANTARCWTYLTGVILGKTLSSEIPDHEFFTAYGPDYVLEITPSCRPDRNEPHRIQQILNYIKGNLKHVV", "test": "Chemoproteomic competition pulldown assay", "format": "binding", "parameters": "endogenous in cells; host or cells: SW620 lysate", "details": "iQ; for relative binding vs DMSO: SW620 lysate", "procedure": "To identify proteins directly bound by lipoic acid, we employed a chemoproteomic competition assay. Briefly, (R/S)-LA was immobilized on sepharose beads via an amidation reaction to form an affinity matrix (abbreviated as iL; Fig. 1a). This affinity matrix can be incubated with cell lysate to pull down potential LA or LM target proteins and identify these targets via bottom-up proteomics. In a competition assay, free LA or LM were incubated with lysate at different concentrations before pulling down and quantifying target proteins. […] (Fig. 1b, see “Methods” for details). […] The lysate buffer used in this assay contains 1 mM DTT to mimic the intracellular reductive milieu and to reduce lipoic acid and LM. […] Additional competition assays performed in lung adenocarcinoma cell A549 lysate also identified HDAC1, HDAC2, and HDAC6 as targets (Supplementary Fig. 1b). Amongst the three cell lines tested, HDACs were the only confidently identified targets across the 1500–3000 proteins quantified in these assays. […] We validated the results by analogous pulldown competition assays using two other affinity matrices prepared via the immobilization of either the HDAC inhibitor Quisinostat (iQ) and an analog of the class IIa HDAC inhibitor Bürli’s 31[14] (iC)[12]. We have previously shown that these affinity matrices specifically bind to the active sites of HDACs and have used them for HDACi selectivity profiling. Indeed, binding of (R/S)-LA and (R/S)-LM to HDAC1, HDAC2, HDAC3, HDAC6, and, to a lesser extent, HDAC8 was confirmed in these assays (Supplementary Fig. 1c, d). No binding to class IIa HDACs or the recently discovered common HDAC inhibitor off-target MBLAC2 was observed (Supplementary Fig. 1e)[12]. […] This observation might reflect electrostatic repulsion between the HDAC10 active site gate-keeper glutamic acid residues[15],[16] and the terminal carboxylic acid of LA.\nTo assess the degree of protein depletion from lysates by the affinity matrix, a second pulldown (PDPD) with fresh beads was performed using the unbound protein fraction from the vehicle control flow through. The beads were washed (1 × 1 mL of lysis buffer without inhibitors and only 0.4% Igepal, 2 × 2 mL of lysis buffer without inhibitors and only 0.2% Igepal), and captured proteins were denatured with 8 M urea buffer, alkylated with 55 mM chloroacetamide and digested with Trypsin according to standard procedures. The resulting peptides were desalted on a C18 filter plate (Sep-Pak® tC18 µElution Plate, Waters), vacuum dried, and stored at −20 °C until LC–MSMS measurement.\nFor the competition assays, relative binding was calculated based on the protein intensity ratio to the DMSO control for every single inhibitor concentration. EC50 values were derived from a four-parameter log-logistic regression with variable slope (constrain: bottom > 0). The obtained EC50 values were multiplied with a protein-dependent correction factor (cf), resulting in the apparent Kd value (Kd^app). The correction factor is determined by calculating the ratio of the protein intensity of two consecutive pulldowns of the vehicle control sample[13]. Targets of the inhibitors were annotated manually according to published procedures[12],[46],[47]. […] Additionally, the number of unique peptides and MSMS counts per condition were taken into account. Positive target binding across several independent experiments performed with different cell lysates further substantiated our confidence for a true positive drug-target binding event."}, "HDAC1": {"target": "HDAC1 (Homo sapiens, UniProt Q13547)", "sequence (Q13547 whole entry)": "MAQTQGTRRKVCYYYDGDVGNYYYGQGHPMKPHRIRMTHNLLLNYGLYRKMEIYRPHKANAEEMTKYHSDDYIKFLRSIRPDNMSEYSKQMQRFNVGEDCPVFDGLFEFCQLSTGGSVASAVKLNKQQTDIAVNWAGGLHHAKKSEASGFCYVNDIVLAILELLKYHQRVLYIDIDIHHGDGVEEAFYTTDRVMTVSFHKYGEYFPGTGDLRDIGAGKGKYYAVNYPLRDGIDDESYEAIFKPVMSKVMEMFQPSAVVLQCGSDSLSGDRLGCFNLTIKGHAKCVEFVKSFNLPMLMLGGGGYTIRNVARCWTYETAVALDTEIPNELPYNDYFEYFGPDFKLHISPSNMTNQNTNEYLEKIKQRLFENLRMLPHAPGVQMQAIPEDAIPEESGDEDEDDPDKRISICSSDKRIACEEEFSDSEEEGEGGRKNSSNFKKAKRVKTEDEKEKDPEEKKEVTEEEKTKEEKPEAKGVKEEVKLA", "test": "HDAC-Glo assay", "format": "biochemical", "parameters": "purchased BPS Bioscience 50051", "details": "for raw luminescence signal, HDAC1 inhibition: 0.5 M TCEP; for HDAC1 relative activity: sheet S2b"}, "HDAC1,2,3,6,8": {"tested_on": "HDAC1,2,3,6,8", "test": "HDAC-Glo assay (panel)", "format": "biochemical, human", "procedure": "To validate the inhibition of HDACs by LA and LM and elaborate on the structure-activity relationship (SAR) of enantiomers as well as oxidized versus reduced forms of the molecules, we performed enzyme activity assays for recombinant HDAC1,2,3,6,8 as well as FRET-based binding assay for recombinant HDAC10.\nThe experiments were performed according to ref. [48]. […] Drug dosing was performed with a D300e Digital Dispenser (Tecan). HDACs (7 ng/mL for HDAC1, 25 ng/mL for HDAC2, 200 ng/mL for HDAC3/Ncor2 complex, 100 ng/mL for HDAC6, 200 ng/mL for HDAC8) and inhibitors were incubated together at room temperature (RT) for 30 min. After the addition of the HDAC-Glo™ I/II reagent, plates were shaken (800 rpm orbital shaker, 30 s), centrifuged (300 g, 1 min), and incubated at RT for 30 min. Luminescence was detected with a CLARIOstar (BMG Labtech) plate reader."}}, "note": "Several values for one entry are separate records, joined by “and”; a condition that tells them apart may be missing. Identical values can stand only once.", "data": [{"smiles": "NC(=O)CCCCC1CCSS1", "note": "(racemic) [(R/S)-LM, (R/S)-lipoamide]", "values": [{"measurement": "Kd", "setting": "HDAC8; SW620, read-out: pKdapp (converted)", "result": 15.8, "unit": "µM"}, {"measurement": "relative binding vs DMSO", "setting": "HDAC8; log10 M -3.52288", "result": 0.4707}, {"measurement": "relative binding vs DMSO", "setting": "HDAC8; log10 M -4", "result": 0.4645}, {"measurement": "relative binding vs DMSO", "setting": "HDAC8; log10 M -4.52288", "result": 0.802}, {"measurement": "relative binding vs DMSO", "setting": "HDAC8; log10 M -5", "result": 1.001}, {"measurement": "relative binding vs DMSO", "setting": "HDAC8; log10 M -5.52288", "result": 1.106}, {"measurement": "relative binding vs DMSO", "setting": "HDAC8; log10 M -6", "result": 1.189}, {"measurement": "relative binding vs DMSO", "setting": "HDAC8; log10 M -6.52288", "result": 0.8797}, {"measurement": "relative binding vs DMSO", "setting": "HDAC8; log10 M -7", "result": 0.9776}, {"measurement": "raw luminescence signal, HDAC1 inhibition", "setting": "HDAC1; log10 M -3.30103, 3 technical replicates", "result": "5424 and 5479 and 5403"}, {"measurement": "raw luminescence signal, HDAC1 inhibition", "setting": "HDAC1; log10 M -3.82945, 3 technical replicates", "result": "13727 and 13267 and 13133"}, {"measurement": "raw luminescence signal, HDAC1 inhibition", "setting": "HDAC1; log10 M -4.35788, 3 technical replicates", "result": "41841 and 41621 and 40313"}, {"measurement": "raw luminescence signal, HDAC1 inhibition", "setting": "HDAC1; log10 M -4.88629, 3 technical replicates", "result": "92316 and 92590 and 94920"}, {"measurement": "raw luminescence signal, HDAC1 inhibition", "setting": "HDAC1; log10 M -5.41477, 3 technical replicates", "result": "199427 and 199193 and 204666"}, {"measurement": "raw luminescence signal, HDAC1 inhibition", "setting": "HDAC1; log10 M -5.94309, 3 technical replicates", "result": "291058 and 290664 and 291270"}, {"measurement": "raw luminescence signal, HDAC1 inhibition", "setting": "HDAC1; log10 M -6.47756, 3 technical replicates", "result": "353511 and 347886 and 348635"}, {"measurement": "raw luminescence signal, HDAC1 inhibition", "setting": "HDAC1; log10 M -6.87615, 3 technical replicates", "result": "348604 and 343316 and 346349"}, {"measurement": "EC50", "setting": "HDAC1; read-out: log EC50 from dose-dependent HDAC inhibition curves (converted)", "result": 4.62, "unit": "µM"}, {"measurement": "HDAC1 relative activity", "setting": "HDAC1; log conc -3.30103", "result": "71.5662 and 71.4067 and 71.4672"}, {"measurement": "HDAC1 relative activity", "setting": "HDAC1; log conc -3.82945", "result": "85.3568 and 84.4089 and 84.9362"}, {"measurement": "HDAC1 relative activity", "setting": "HDAC1; log conc -4.35788", "result": "99.571 and 98.7787 and 97.4651"}, {"measurement": "HDAC1 relative activity", "setting": "HDAC1; log conc -4.88629", "result": "94.8867 and 95.3188 and 94.2715"}, {"measurement": "HDAC1 relative activity", "setting": "HDAC1; log conc -5.41477", "result": "102.996 and 104.783 and 104.694"}, {"measurement": "HDAC1 relative activity", "setting": "HDAC1; log conc -5.94309", "result": "100.727 and 101.673 and 102.371"}, {"measurement": "HDAC1 relative activity", "setting": "HDAC1; log conc -6.47756", "result": "104.216 and 103.707 and 104.551"}, {"measurement": "HDAC1 relative activity", "setting": "HDAC1; log conc -6.87615", "result": "97.8849 and 97.6343 and 99.4595"}, {"measurement": "HDAC inhibition by the oxidized form", "setting": "HDAC1,2,3,6,8; absence of TCEP", "result": "No activity at all"}, {"measurement": "EC50", "setting": "HDAC1,2,3,6,8; with TCEP, range over HDAC1,2,3,6,8, read-out: EC50 of HDAC inhibition, reduced form", "result": "1 to 44", "unit": "µM"}]}]}
